In general, MIC refers to the least concentration at which growth counts as inhibited. What is called IC50 is the concentration at which inhibition is half-maximal. For orientation: Ki means a dissociation constant, usually derived from enzyme kinetics or from competition with a known ligand.

We go through 13 compounds from ChEMBL document CHEMBL2375269, “Triazolothiadiazoles and triazolothiadiazines--biologically attractive scaffolds” (Eur J Med Chem, 2013).

For experiment [1], the system named is Shigella flexneri. Put plainly: Antibacterial activity against Shigella flexneri after 24 hrs by serial tube dilution method. Format: functional.
For experiment [2], the system named is Escherichia coli. As to the kind of experiment: Antibacterial activity against Escherichia coli after 24 hrs by serial tube dilution method. In kind it is functional.
Experiment [3] relates to Bacillus subtilis. As to the kind of experiment: Antibacterial activity against Bacillus subtilis after 24 hrs by serial tube dilution method. Format: functional.
In experiment [4] the test system is Staphylococcus aureus. Put plainly: Antibacterial activity against Staphylococcus aureus after 24 hrs by serial tube dilution method. Format: functional.
Experiment [5] is described as follows: Inhibition of acetylcholine esterase (unknown origin) using acetylthiocholine as substrate incubated for 15 mins prior to substrate addition measured after 5 mins by spectrophotometry. Also noted: species or system Homo sapiens.
A short description of experiment [6]: Inhibition of urease (unknown origin) assessed as ammonia synthesis after 30 mins by microplate reader analysis. Also noted: species or system Homo sapiens.
Experiment [7] deals with Radical scavenging activity. Put plainly: Antioxidant activity of the compound assessed as DPPH radical scavenging activity after 30 mins by spectrophotometry. In kind it is functional. (The DPPH test is a chemical assay of radical scavenging.)
Experiment [8] has as its target Intestinal-type alkaline phosphatase (Bos taurus, UniProt P19111). As to the kind of experiment: Inhibition of calf intestinal alkaline phosphatase using p-NPP as substrate incubated for 10 mins prior to substrate addition measured after 30 mins by spectrophotometry.

≈ marks a conversion by molar mass, not a printed value.

Intestinal-type alkaline phosphatase, sequence (P19111 whole entry): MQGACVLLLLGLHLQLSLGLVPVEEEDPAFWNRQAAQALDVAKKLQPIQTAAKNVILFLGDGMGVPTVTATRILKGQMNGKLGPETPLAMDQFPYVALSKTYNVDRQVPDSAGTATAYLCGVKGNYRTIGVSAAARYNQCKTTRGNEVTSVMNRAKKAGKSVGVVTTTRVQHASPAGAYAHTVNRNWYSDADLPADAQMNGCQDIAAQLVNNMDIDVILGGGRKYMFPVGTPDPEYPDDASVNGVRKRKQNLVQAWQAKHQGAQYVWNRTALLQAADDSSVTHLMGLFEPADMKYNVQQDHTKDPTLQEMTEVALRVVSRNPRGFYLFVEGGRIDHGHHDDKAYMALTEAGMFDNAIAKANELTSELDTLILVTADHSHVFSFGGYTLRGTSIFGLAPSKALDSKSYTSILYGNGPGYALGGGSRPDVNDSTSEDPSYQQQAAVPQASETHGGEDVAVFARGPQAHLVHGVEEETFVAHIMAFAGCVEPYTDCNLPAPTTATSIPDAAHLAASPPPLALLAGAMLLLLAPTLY

`Fc1cnc(-c2nn3c(-c4ccccc4Cl)nnc3s2)c(F)c1`: the minimum inhibitory concentration (MIC) in experiment [1], in experiment [2], in experiment [3] and in experiment [4] was 0.156 µg/mL (≈ 0.446 µM) in each case.

`Brc1cccc(-c2nnc3sc(-c4ccoc4)nn23)c1`: in experiment [5], it took 344 nM to reach half-maximal inhibition (IC50).

Turning to `COc1ccc(-c2nnc3sc(-c4ccoc4)nn23)cc1`, the IC50 in experiment [5] amounted to 1780 nM. In experiment [6], the IC50 was found to be 764 nM and the Ki turned out to be 450 nM.

In experiment [5], `COc1ccccc1-c1nnc2sc(-c3ccoc3)nn12` had a 50% inhibitory concentration (IC50) of 1780 nM.

Consider `Clc1ccc(-c2nnc3sc(-c4ccoc4)nn23)cc1`, for which it took 1780 nM to reach half-maximal inhibition in experiment [5] (IC50).

On to `CCCOC(=O)c1cc(O)c(O)c(O)c1` [PROPYL GALLATE], for which, in experiment [7], the IC50 was 40800 nM.

Consider `Brc1ccc(-c2nnc3sc(-c4ccoc4)nn23)cc1`, for which the IC50 turned out to be 61 nM in experiment [8] and 1780 nM in experiment [5].

`COc1cccc(Cc2nnc3sc(-c4ccc(Cl)cc4)nn23)c1`: the 50% inhibitory concentration (IC50) in experiment [7] is 9040 nM.

For `Fc1cccc(Cc2nnc3sc(-c4ccoc4)nn23)c1`, the 50% inhibitory concentration (IC50) is 31500 nM in experiment [7] and 1780 nM in experiment [5].

On to `Fc1ccc(Cc2nnc3sc(-c4ccoc4)nn23)cc1`, for which the IC50 in experiment [5] stood at 1780 nM.

`Fc1ccccc1Cc1nnc2sc(-c3ccoc3)nn12` had a half-inhibitory concentration (IC50) in experiment [5] of 1780 nM.

Regarding `Clc1ccccc1-c1nnc2sc(-c3ccoc3)nn12`, in experiment [5], 1780 nM corresponded to half-maximal inhibition (IC50).

Consider `COc1cccc(-c2nnc3sc(-c4ccoc4)nn23)c1`, for which the IC50 in experiment [5] worked out at 1780 nM.
